Assay results taken from US20230085307A1, “PYRIDAZINONE COMPOUND AND HERBICIDE” (NISSAN CHEMICAL CORPORATION, priority 2019, published 2023).

Columns and labels:
[1] = tested on: barnyard grass; assay: Test Example 3: herbicidal effect by foliage application, Wagner pot (Table 18, symbol H); assay type: in vivo, barnyard grass (Echinochloa crus-galli); settings: 320 g/ha
Summary of the method: (§1)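 Plants were sown in alluvial soil held under 0.1–0.5 cm standing water and grown 14 days in a greenhouse at 25–30 °C. An emulsifiable formulation, water-diluted to the set dose, was then sprayed onto the foliage, and effects were scored three weeks later using previously defined criteria.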

[2] = tested on: Chinese sprangletop; assay: Test Example 3: herbicidal effect by foliage application, Wagner pot (Table 18, symbol D); assay type: in vivo, chinese sprangletop (Leptochloa chinensis); settings: 320 g/ha
Summary of the method: as §1

[3] = tested on: rice flat sedge; assay: Test Example 3: herbicidal effect by foliage application, Wagner pot (Table 18, symbol E); assay type: in vivo, rice flat sedge (Cyperus iria); settings: 320 g/ha
Summary of the method: as §1

[4] = tested on: southern crabgrass; assay: Test Example 4: herbicidal effect by soil treatment (Table 19, symbol F); assay type: in vivo, southern crabgrass (Digitaria ciliaris); settings: amount of applied herbicide 320 g/ha
Summary of the method: (§2)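 Herbicidal effect was rated 3 weeks after treatment, using the scoring criteria of an earlier test. The compound, formulated as an emulsion and diluted in water to a set herbicide amount, had been sprayed uniformly on soil over freshly sown seeds. Growth took place in a greenhouse at 25° C. to 30° C.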

[5] = tested on: green foxtail; assay: Test Example 4: herbicidal effect by soil treatment (Table 19, symbol G); assay type: in vivo, green foxtail (Setaria viridis); settings: amount of applied herbicide 320 g/ha
Summary of the method: as §2

[6] = tested on: barnyard grass; assay: Test Example 4: herbicidal effect by soil treatment (Table 19, symbol H); assay type: in vivo, barnyard grass (Echinochloa crus-galli); settings: amount of applied herbicide 320 g/ha
Summary of the method: as §2

[7] = tested on: wild oat; assay: Test Example 4: herbicidal effect by soil treatment (Table 19, symbol I); assay type: in vivo, wild oat (Avena fatua); settings: amount of applied herbicide 320 g/ha
Summary of the method: as §2

[8] = tested on: blackgrass; assay: Test Example 4: herbicidal effect by soil treatment (Table 19, symbol J); assay type: in vivo, blackgrass (Alopecurus myosuroides); settings: amount of applied herbicide 320 g/ha
Summary of the method: as §2

[9] = tested on: Italian ryegrass; assay: Test Example 4: herbicidal effect by soil treatment (Table 19, symbol K); assay type: in vivo, Italian ryegrass (Lolium multiflorum); settings: amount of applied herbicide 320 g/ha
Summary of the method: as §2

[10] = tested on: windgrass; assay: Test Example 4: herbicidal effect by soil treatment (Table 19, symbol L); assay type: in vivo, windgrass (Apera spica-venti); settings: amount of applied herbicide 320 g/ha
Summary of the method: as §2

[11] = tested on: velvetleaf; assay: Test Example 4: herbicidal effect by soil treatment (Table 19, symbol M); assay type: in vivo, velvetleaf (Abutilon theophrasti); settings: amount of applied herbicide 320 g/ha
Summary of the method: as §2

[12] = tested on: redroot pigweed; assay: Test Example 4: herbicidal effect by soil treatment (Table 19, symbol N); assay type: in vivo, redroot pigweed (Amaranthus retroflexus); settings: amount of applied herbicide 320 g/ha
Summary of the method: as §2

[13] = tested on: lambsquarters; assay: Test Example 4: herbicidal effect by soil treatment (Table 19, symbol O); assay type: in vivo, lambsquarters (Chenopodium album); settings: amount of applied herbicide 320 g/ha
Summary of the method: as §2

[14] = tested on: chickweed; assay: Test Example 4: herbicidal effect by soil treatment (Table 19, symbol P); assay type: in vivo, common chickweed (Stellaria media); settings: amount of applied herbicide 320 g/ha
Summary of the method: as §2

[15] = tested on: persian speedwell; assay: Test Example 4: herbicidal effect by soil treatment (Table 19, symbol R); assay type: in vivo, Persian speedwell (Veronica persica); settings: amount of applied herbicide 320 g/ha
Summary of the method: as §2

[16] = tested on: southern crabgrass; assay: Test Example 5: herbicidal effect by foliage application, plastic box (Table 20, symbol F); assay type: in vivo, southern crabgrass (Digitaria ciliaris); settings: 320 g/ha, foliage application after 14-day growth, evaluated three weeks after application
Summary of the method: (§3)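 Foliar spray test: emulsion formulation diluted in water to a set application rate, sprayed onto 14-day-old plants raised in diluvial soil at 25° C to 30° C under glass. Both herbicidal effect and crop effect rated visually three weeks later.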

[17] = tested on: green foxtail; assay: Test Example 5: herbicidal effect by foliage application, plastic box (Table 20, symbol G); assay type: in vivo, green foxtail (Setaria viridis); settings: 320 g/ha, foliage application after 14-day growth, evaluated three weeks after application
Summary of the method: as §3

[18] = tested on: barnyard grass; assay: Test Example 5: herbicidal effect by foliage application, plastic box (Table 20, symbol H); assay type: in vivo, barnyard grass (Echinochloa crus-galli); settings: 320 g/ha, foliage application after 14-day growth, evaluated three weeks after application
Summary of the method: as §3

[19] = tested on: wild oat; assay: Test Example 5: herbicidal effect by foliage application, plastic box (Table 20, symbol I); assay type: in vivo, wild oat (Avena fatua); settings: 320 g/ha, foliage application after 14-day growth, evaluated three weeks after application
Summary of the method: as §3

[20] = tested on: blackgrass; assay: Test Example 5: herbicidal effect by foliage application, plastic box (Table 20, symbol J); assay type: in vivo, blackgrass (Alopecurus myosuroides); settings: 320 g/ha, foliage application after 14-day growth, evaluated three weeks after application
Summary of the method: as §3

[21] = tested on: Italian ryegrass; assay: Test Example 5: herbicidal effect by foliage application, plastic box (Table 20, symbol K); assay type: in vivo, Italian ryegrass (Lolium multiflorum); settings: 320 g/ha, foliage application after 14-day growth, evaluated three weeks after application
Summary of the method: as §3

[22] = tested on: windgrass; assay: Test Example 5: herbicidal effect by foliage application, plastic box (Table 20, symbol L); assay type: in vivo, windgrass (Apera spica-venti); settings: 320 g/ha, foliage application after 14-day growth, evaluated three weeks after application
Summary of the method: as §3

[23] = tested on: velvetleaf; assay: Test Example 5: herbicidal effect by foliage application, plastic box (Table 20, symbol M); assay type: in vivo, velvetleaf (Abutilon theophrasti); settings: 320 g/ha, foliage application after 14-day growth, evaluated three weeks after application
Summary of the method: as §3

[24] = tested on: redroot pigweed; assay: Test Example 5: herbicidal effect by foliage application, plastic box (Table 20, symbol N); assay type: in vivo, redroot pigweed (Amaranthus retroflexus); settings: 320 g/ha, foliage application after 14-day growth, evaluated three weeks after application
Summary of the method: as §3

[25] = tested on: lambsquarters; assay: Test Example 5: herbicidal effect by foliage application, plastic box (Table 20, symbol O); assay type: in vivo, lambsquarters (Chenopodium album); settings: 320 g/ha, foliage application after 14-day growth, evaluated three weeks after application
Summary of the method: as §3

[26] = tested on: chickweed; assay: Test Example 5: herbicidal effect by foliage application, plastic box (Table 20, symbol P); assay type: in vivo, common chickweed (Stellaria media); settings: 320 g/ha, foliage application after 14-day growth, evaluated three weeks after application
Summary of the method: as §3

[27] = tested on: persian speedwell; assay: Test Example 5: herbicidal effect by foliage application, plastic box (Table 20, symbol R); assay type: in vivo, Persian speedwell (Veronica persica); settings: 320 g/ha, foliage application after 14-day growth, evaluated three weeks after application
Summary of the method: as §3

Row | Compound | herbicidal effect on barnyard grass (H) [1] | herbicidal effect on Chinese sprangletop (D) [2] | herbicidal effect on rice flat sedge (E) [3] | Herbicidal effect by soil treatment, F: southern crabgrass [4] | Herbicidal effect by soil treatment, G: green foxtail [5] | Herbicidal effect by soil treatment, H: barnyard grass [6] | Herbicidal effect by soil treatment, I: wild oat [7] | Herbicidal effect by soil treatment, J: blackgrass [8] | Herbicidal effect by soil treatment, K: Italian ryegrass [9] | Herbicidal effect by soil treatment, L: windgrass [10] | Herbicidal effect by soil treatment, M: velvetleaf [11] | Herbicidal effect by soil treatment, N: redroot pigweed [12] | Herbicidal effect by soil treatment, O: lambsquarters [13] | Herbicidal effect by soil treatment, P: chickweed [14] | Herbicidal effect by soil treatment, R: persian speedwell [15] | herbicidal effect on F: southern crabgrass (evaluation grade 0-5) [16] | herbicidal effect on G: green foxtail (evaluation grade 0-5) [17] | herbicidal effect on H: barnyard grass (evaluation grade 0-5) [18] | herbicidal effect on I: wild oat (evaluation grade 0-5) [19] | herbicidal effect on J: blackgrass (evaluation grade 0-5) [20] | other results
1 | CCCC(=O)Oc1c(C)nn(C)c(=O)c1-c1c(-c2ccc(F)cc2OC)sc2c(F)cccc12 [4-012] | 5 (Herbicidal rate of 90% or more (almost completely withered)) | 3 (Herbicidal rate of 40% or more and less than 70%) | 5 (Herbicidal rate of 90% or more (almost completely withered)) | 0 (Herbicidal rate of 5% or less (almost no effect)) | 0 (Herbicidal rate of 5% or less (almost no effect)) | 0 (Herbicidal rate of 5% or less (almost no effect)) | 0 (Herbicidal rate of 5% or less (almost no effect)) | 0 (Herbicidal rate of 5% or less (almost no effect)) | 0 (Herbicidal rate of 5% or less (almost no effect)) | 0 (Herbicidal rate of 5% or less (almost no effect)) | 1 (Herbicidal rate of 5% or more and less than 20%) | 3 (Herbicidal rate of 40% or more and less than 70%) | 1 (Herbicidal rate of 5% or more and less than 20%) | 0 (Herbicidal rate of 5% or less (almost no effect)) | 0 (Herbicidal rate of 5% or less (almost no effect)) | 2 (Herbicidal rate of 20% or more and less than 40%) | 5 (Herbicidal rate of 90% or more (almost completely withered)) | 3 (Herbicidal rate of 40% or more and less than 70%) | 0 (Herbicidal rate of 5% or less (almost no effect)) | 0 (Herbicidal rate of 5% or less (almost no effect)) | herbicidal effect on K: Italian ryegrass (evaluation grade 0-5) [21]: 3 (Herbicidal rate of 40% or more and less than 70%); herbicidal effect on L: windgrass (evaluation grade 0-5) [22]: 1 (Herbicidal rate of 5% or more and less than 20%); herbicidal effect on M: velvetleaf (evaluation grade 0-5) [23]: 3 (Herbicidal rate of 40% or more and less than 70%); herbicidal effect on N: redroot pigweed (evaluation grade 0-5) [24]: 4 (Herbicidal rate of 70% or more and less than 90%); herbicidal effect on O: lambsquarters (evaluation grade 0-5) [25]: 2 (Herbicidal rate of 20% or more and less than 40%); herbicidal effect on P: chickweed (evaluation grade 0-5) [26]: 5 (Herbicidal rate of 90% or more (almost completely withered)); herbicidal effect on R: persian speedwell (evaluation grade 0-5) [27]: 4 (Herbicidal rate of 70% or more and less than 90%)
2 | COc1ccccc1-c1sc2c(Cl)cccc2c1-c1c(O)c(C)nn(C)c1=O [4-021] | 4 (Herbicidal rate of 70% or more and less than 90%) | 4 (Herbicidal rate of 70% or more and less than 90%) | 5 (Herbicidal rate of 90% or more (almost completely withered)) | 0 (Herbicidal rate of 5% or less (almost no effect)) | 0 (Herbicidal rate of 5% or less (almost no effect)) | 0 (Herbicidal rate of 5% or less (almost no effect)) | 0 (Herbicidal rate of 5% or less (almost no effect)) | 0 (Herbicidal rate of 5% or less (almost no effect)) | 0 (Herbicidal rate of 5% or less (almost no effect)) | 0 (Herbicidal rate of 5% or less (almost no effect)) | 0 (Herbicidal rate of 5% or less (almost no effect)) | 2 (Herbicidal rate of 20% or more and less than 40%) | 1 (Herbicidal rate of 5% or more and less than 20%) | 4 (Herbicidal rate of 70% or more and less than 90%) | 3 (Herbicidal rate of 40% or more and less than 70%) | 1 (Herbicidal rate of 5% or more and less than 20%) | 4 (Herbicidal rate of 70% or more and less than 90%) | 3 (Herbicidal rate of 40% or more and less than 70%) | 0 (Herbicidal rate of 5% or less (almost no effect)) | 0 (Herbicidal rate of 5% or less (almost no effect)) | herbicidal effect on K: Italian ryegrass (evaluation grade 0-5) [21]: 5 (Herbicidal rate of 90% or more (almost completely withered)); herbicidal effect on L: windgrass (evaluation grade 0-5) [22]: 5 (Herbicidal rate of 90% or more (almost completely withered)); herbicidal effect on M: velvetleaf (evaluation grade 0-5) [23]: 2 (Herbicidal rate of 20% or more and less than 40%); herbicidal effect on N: redroot pigweed (evaluation grade 0-5) [24]: 1 (Herbicidal rate of 5% or more and less than 20%); herbicidal effect on O: lambsquarters (evaluation grade 0-5) [25]: 2 (Herbicidal rate of 20% or more and less than 40%); herbicidal effect on P: chickweed (evaluation grade 0-5) [26]: 5 (Herbicidal rate of 90% or more (almost completely withered)); herbicidal effect on R: persian speedwell (evaluation grade 0-5) [27]: 4 (Herbicidal rate of 70% or more and less than 90%)
